Laboratory results from US8318769B2, “Substituted sulfonamide compounds” (Gruenethal GmbH, priority 2008, dated 2012).

Assays:
[1] = biological target: T1, human bradykinin 1 receptor (B1R) (Homo sapiens, UniProt P46663); test: FLIPR Ca2+ assay, B1R antagonism, human; assay type: cell-based; details: 10 μM test substance, CHO K1 cells with human B1R gene (hB1R cells), Lys-Des-Arg9-bradykinin at EC80, % inhibition compared with the maximum achievable inhibition; for inhibition at 10 µM: read-out: B1R antagonism, human [10 μM] % inhibition
T1 construct: expressed in transfected cells
T1 sequence (P46663 1-353): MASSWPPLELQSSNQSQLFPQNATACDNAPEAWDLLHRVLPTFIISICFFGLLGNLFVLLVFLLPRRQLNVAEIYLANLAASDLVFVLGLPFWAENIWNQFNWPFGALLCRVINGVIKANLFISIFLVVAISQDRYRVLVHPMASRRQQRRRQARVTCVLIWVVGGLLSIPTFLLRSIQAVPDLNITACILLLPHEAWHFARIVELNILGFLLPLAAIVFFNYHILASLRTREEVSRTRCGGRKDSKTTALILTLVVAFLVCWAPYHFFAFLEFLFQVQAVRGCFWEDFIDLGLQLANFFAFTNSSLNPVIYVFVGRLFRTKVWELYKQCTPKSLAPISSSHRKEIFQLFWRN
Outline: (§1)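 Antagonism is given as % of maximum achievable suppression of agonist-evoked Ca2+ influx, measured by Fluo-4 peak fluorescence in FLIPR. Stable hB1R or rB1R CHO K1 lines received 10 μM compound for 10-20 min before EC80 Lys-Des-Arg9-bradykinin (human) or Des-Arg9-bradykinin (rat).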

[2] = biological target: T2, bradykinin 1 receptor (B1R) of the rat (Rattus norvegicus, UniProt P97583); test: FLIPR Ca2+ assay, B1R antagonism, rat; assay type: cell-based; details: CHO K1 cells with rat B1R gene (rB1R cells), Des-Arg9-bradykinin at EC80, % inhibition compared with the maximum achievable inhibition; for inhibition at 10 µM: CHO-K1, 10 μM test substance, read-out: B1R antagonism, rat [10 μM] % inhibition
T2 construct: expressed in transfected cells
T2 sequence (P97583 1-337): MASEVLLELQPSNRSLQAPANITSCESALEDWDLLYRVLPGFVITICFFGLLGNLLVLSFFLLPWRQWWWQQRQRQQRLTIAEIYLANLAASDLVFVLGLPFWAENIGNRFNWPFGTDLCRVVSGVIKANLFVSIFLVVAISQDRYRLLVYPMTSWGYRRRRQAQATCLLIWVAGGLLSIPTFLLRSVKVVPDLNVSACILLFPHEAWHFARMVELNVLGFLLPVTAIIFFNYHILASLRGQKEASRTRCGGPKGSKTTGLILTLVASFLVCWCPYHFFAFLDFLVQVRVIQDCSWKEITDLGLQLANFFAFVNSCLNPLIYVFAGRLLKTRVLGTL
Outline: as §1

Row | Compound | inhibition at 10 µM [1] | inhibition at 10 µM [2] | B1R antagonism, human [10 μM] % inhibition [1] | B1R antagonism, rat [10 μM] % inhibition ([2]; 10 μM test substance, 10 µM)
1 | O=C(CCCC1CCCCN1S(=O)(=O)c1ccc2ccccc2c1)N1CCC(OCCN2CCCC2)(c2cccnc2)CC1 (centres unmarked) [Example 95, 4-[1-(naphthalen-2-ylsulfonyl)-piperidin-2-yl]-1-[4-pyridin-3-yl-4-(2-pyrrolidin-1-yl-ethoxy)-piperidin-1-yl]-butan-1-one] | 95% | 101% | – | –
2 | COc1cc(C)c(S(=O)(=O)N(CCOCC(=O)N2CCC(OCCN3CCCC3)(c3cccnc3)CC2)c2ccccc2)c(C)c1 [Example 98, 4-methoxy-2,6-dimethyl-N-[2-[2-oxo-2-[4-pyridin-3-yl-4-(2-pyrrolidin-1-yl-ethoxy)-piperidin-1-yl]-ethoxy]-ethyl]-N-phenyl-benzenesulfonic acid amide] | 100% | 103% | – | –
3 | COc1cc(C)c(S(=O)(=O)N(CCOCC(=O)N2CCC(OCCN3CCCC3)(c3cccc(F)c3)CC2)c2ccccc2)c(C)c1 [Example 99, N-[2-[2-[4-(3-fluorophenyl)-4-(2-pyrrolidin-1-yl-ethoxy)-piperidin-1-yl]-2-oxo-ethoxy]-ethyl]-4-methoxy-2,6-dimethyl-N-phenyl-benzenesulfonic acid amide] | 99% | 97% | – | –
4 | COc1cc(C)c(S(=O)(=O)N(CCOCC(=O)N2CCC(OCCN3CCCC3)(c3ccncc3)CC2)c2ccccc2)c(C)c1 [Example 100, 4-methoxy-2,6-dimethyl-N-[2-[2-oxo-2-[4-pyridin-4-yl-4-(2-pyrrolidin-1-yl-ethoxy)-piperidin-1-yl]-ethoxy]-ethyl]-N-phenyl-benzenesulfonic acid amide] | 100% | 102% | – | –
5 | COc1cc(C)c(S(=O)(=O)N2c3ccccc3CCC2COCC(=O)N2CCC(OCCN3CCCC3)(c3cccnc3)CC2)c(C)c1 (centres unmarked) [Example 101, 2-[[1-[(4-methoxy-2,6-dimethyl-phenyl)sulfonyl]-1,2,3,4-tetrahydro-quinolin-2-yl]-methoxy]-1-[4-pyridin-3-yl-4-(2-pyrrolidin-1-yl-ethoxy)-piperidin-1-yl]-ethanone] | 100% | 102% | – | –
6 | COc1cc(C)c(S(=O)(=O)N2c3ccccc3CCC2COCC(=O)N2CCC(OCCN3CCCC3)(c3cccc(F)c3)CC2)c(C)c1 (centres unmarked) [Example 102, 1-[4-(3-fluorophenyl)-4-(2-pyrrolidin-1-yl-ethoxy)-piperidin-1-yl]-2-[[1-[(4-methoxy-2,6-dimethyl-phenyl)sulfonyl]-1,2,3,4-tetrahydro-quinolin-2-yl]-methoxy]-ethanone] | 99% | 98% | – | –
7 | COc1cc(C)c(S(=O)(=O)N2c3ccccc3CCC2COCC(=O)N2CCC(OCCN3CCCC3)(c3ccncc3)CC2)c(C)c1 (centres unmarked) [Example 103, 2-[[1-[(4-methoxy-2,6-dimethyl-phenyl)sulfonyl]-1,2,3,4-tetrahydro-quinolin-2-yl]-methoxy]-1-[4-pyridin-4-yl-4-(2-pyrrolidin-1-yl-ethoxy)-piperidin-1-yl]-ethanone] | 100% | 103% | – | –
8 | COc1cc(C)c(S(=O)(=O)N2c3ccccc3OCC2COCC(=O)N2CCC(OCCN3CCCC3)(c3cccnc3)CC2)c(C)c1 (centres unmarked) [Example 106, 2-[[4-[(4-methoxy-2,6-dimethyl-phenyl)sulfonyl]-3,4-dihydro-2H-[1,4]benzoxazin-3-yl]-methoxy]-1-[4-pyridin-3-yl-4-(2-pyrrolidin-1-yl-ethoxy)-piperidin-1-yl]-ethanone] | 100% | 101% | – | –
9 | COc1cc(C)c(S(=O)(=O)N2c3ccccc3OCC2COCC(=O)N2CCC(OCCN3CCCC3)(c3cccc(F)c3)CC2)c(C)c1 (centres unmarked) [Example 107, 1-[4-(3-fluorophenyl)-4-(2-pyrrolidin-1-yl-ethoxy)-piperidin-1-yl]-2-[[4-[(4-methoxy-2,6-dimethyl-phenyl)sulfonyl]-3,4-dihydro-2H-[1,4]benzoxazin-3-yl]-methoxy]-ethanone] | 98% | 97% | – | –
10 | COc1cc(C)c(S(=O)(=O)N2c3ccccc3OCC2COCC(=O)N2CCC(OCCN3CCCC3)(c3ccncc3)CC2)c(C)c1 (centres unmarked) [Example 108, 2-[[4-[(4-methoxy-2,6-dimethyl-phenyl)sulfonyl]-3,4-dihydro-2H-[1,4]benzoxazin-3-yl]-methoxy]-1-[4-pyridin-4-yl-4-(2-pyrrolidin-1-yl-ethoxy)-piperidin-1-yl]-ethanone] | 100% | 103% | – | –
11 | Cc1cccc(Cl)c1S(=O)(=O)N1c2ccccc2OCC1COCC(=O)N1CCC(OCCN2CCCC2)(c2cccc(F)c2)CC1 (centres unmarked) [Example 109, 2-[[4-[(2-chloro-6-methyl-phenyl)sulfonyl]-3,4-dihydro-2H-[1,4]benzoxazin-3-yl]-methoxy]-1-[4-(3-fluorophenyl)-4-(2-pyrrolidin-1-yl-ethoxy)-piperidin-1-yl]-ethanone] | 91% | 99% | – | –
12 | O=C(COCC1COc2ccccc2N1S(=O)(=O)c1ccccc1C(F)(F)F)N1CCC(OCCN2CCCC2)(c2ccncc2)CC1 (centres unmarked) [Example 112, 1-[4-pyridin-4-yl-4-(2-pyrrolidin-1-yl-ethoxy)-piperidin-1-yl]-2-[[4-[[2-(trifluoromethyl)-phenyl]sulfonyl]-3,4-dihydro-2H-[1,4]benzoxazin-3-yl]-methoxy]-ethanone] | 100% | 81% | – | –
13 | COc1cc(C)c(S(=O)(=O)N(C)CCOCC(=O)N2CCC(OCCN3CCCC3)(c3cccnc3)CC2)c(C)c1C [Example 113, 4-methoxy-N,2,3,6-tetramethyl-N-[2-[2-oxo-2-[4-pyridin-3-yl-4-(2-pyrrolidin-1-yl-ethoxy)-piperidin-1-yl]-ethoxy]-ethyl]-benzenesulfonic acid amide] | 100% | 103% | – | –
14 | COc1cc(C)c(S(=O)(=O)N(C)CCOCC(=O)N2CCC(OCCN3CCCC3)(c3cccc(F)c3)CC2)c(C)c1C [Example 114, N-[2-[2-[4-(3-fluorophenyl)-4-(2-pyrrolidin-1-yl-ethoxy)-piperidin-1-yl]-2-oxo-ethoxy]-ethyl]-4-methoxy-N,2,3,6-tetramethyl-benzenesulfonic acid amide] | 100% | 99% | – | –
15 | COc1cc(C)c(S(=O)(=O)N(C)CCOCC(=O)N2CCC(OCCN3CCCC3)(c3ccncc3)CC2)c(C)c1C [Example 115, 4-methoxy-N,2,3,6-tetramethyl-N-[2-[2-oxo-2-[4-pyridin-4-yl-4-(2-pyrrolidin-1-yl-ethoxy)-piperidin-1-yl]-ethoxy]-ethyl]-benzenesulfonic acid amide] | 100% | 102% | – | –
16 | O=C(COCC1CCCCN1S(=O)(=O)c1ccccc1C(F)(F)F)N1CCC(OCCN2CCCC2)(c2cccnc2)CC1 (centres unmarked) [Example 116, 1-[4-pyridin-3-yl-4-(2-pyrrolidin-1-yl-ethoxy)-piperidin-1-yl]-2-[[1-[[2-(trifluoromethyl)-phenyl]sulfonyl]-piperidin-2-yl]-methoxy]-ethanone] | 100% | 101% | – | –
17 | O=C(COCC1CCCCN1S(=O)(=O)c1ccccc1C(F)(F)F)N1CCC(OCCN2CCCC2)(c2cccnc2)CC1 (centres unmarked) [Example 117, 1-[4-pyridin-3-yl-4-(2-pyrrolidin-1-yl-ethoxy)-piperidin-1-yl]-2-[[1-[[2-(trifluoromethyl)-phenyl]sulfonyl]-piperidin-2-yl]-methoxy]-ethanone] | – | – | 100% | 103%
18 | O=C(COCC1CCCCN1S(=O)(=O)c1ccccc1C(F)(F)F)N1CCC(OCCN2CCCC2)(c2cccc(F)c2)CC1 (centres unmarked) [Example 118, 1-[4-(3-fluorophenyl)-4-(2-pyrrolidin-1-yl-ethoxy)-piperidin-1-yl]-2-[[1-[[2-(trifluoromethyl)-phenyl]sulfonyl]-piperidin-2-yl]-methoxy]-ethanone] | 100% | 97% | – | –
19 | COc1cc(C)c(S(=O)(=O)N2CCCCC2COCCC(=O)N2CCC(OCCN3CCCC3)(c3cccnc3)CC2)c(C)c1 (centres unmarked) [Example 119, 3-[[1-[(4-methoxy-2,6-dimethyl-phenyl)sulfonyl]-piperidin-2-yl]-methoxy]-1-[4-pyridin-3-yl-4-(2-pyrrolidin-1-yl-ethoxy)-piperidin-1-yl]-propan-1-one] | 100% | 102% | – | –
